Experimental data taken from patent US20250090545A1, “METHODS AND COMPOSITIONS FOR TREATMENT OF PERIPHERAL NEUROPATHIES” (UNIVERSITY OF MANITOBA, priority 2013, published 2025).
Entries after “also recorded” stand apart in the source; their conditions may differ.

Columns and labels:
PGC-1α = PGC-1α transcriptional activity, luciferase reporter in adult sensory neurons; format: cell-based, rat
Description: PGC-1α transcriptional activity was determined in dissociated adult sensory neurons derived from STZ-induced diabetic rats by transfection for two days with luciferase-based reporter plasmids by following the methods taught in the AMAXA® NUCLEOFECTOR® II Manual (www.amaxa.com; AMAX and NUCLEOFECTOR are registered trademarks of Amaxa GmBH Corp., Koln, Fed. Rep. Germany) and by Saleh et al. (2013, Ciliary neurotrophic factor activates NF-κB to enhance mitochondrial bioenergetics and prevent neuropathy in sensory neurons of streptozotocin-induced diabetic rodents. Neuropharmacology 65:65-75) (the luciferase-based reporter plasmids were a gift from Dr. Michael Czubryt, University of Manitoba).

[1] = tested on: STZ-induced diabetic Swiss Webster mice; assay: Topical atropine (eye or paw) in STZ-induced diabetic Swiss Webster mice; format: in vivo, mouse; conditions: 5 days/wk, 12 weeks
Description: Groups of adult Swiss Webster mice were made diabetic with STZ and then treated 5 days/wk with atropine delivered topically to one eye (2% solution) or topically to one paw (2% gel) for 12 weeks. Measurements were made on both the treated and untreated hind paw. Indices of large motor fiber function (MNCV; FIG. 21) and sensory sensory fiber function (paw thermal latency; FIG. 22) were measured and compared to those of age-matched control mice that were treated in an equivalent manner. […] The data shown in FIGS. 21 and 22 are group means±SEM with N=6-10/group. Significant differences were determined by unpaired t-test to compare control and diabetic animals under each condition (vehicle, atropine to the eye, atropine to the foot).

[2] = tested on: AMP-activated protein kinase (AMPK); assay: AMPK phosphorylation (Western blot) in cultured adult sensory neurons; format: cell-based, rat; conditions: neurons from age-matched control rats
Description: Subsets of cultured adult sensory neurons derived from age-matched control rats or 3-5 month STZ-induced diabetic rats were treated with a 1.0 μM pirenzepine-HCl dosage. The first subset was processed immediately while the second, third and fourth subsets of the neurons from the control rats and the diabetic rats were processed after 15 min, after 30 min, and after 60 min respectively following treatment with pirenzepine. The cell cultures were lysed and then used to prepare Western blots which were then probed with antibodies against phosphorylated AMPK (P-AMPK), total AMPK (T-AMPK) and total ERK (T-ERK). […] Values are means±SEM, N=3/group. Statistical significance was analyzed using one-way ANOVA with Tukey's post-hoc test.

[3] = tested on: cultured adult rat sensory neurons; assay: Total neurite outgrowth in cultured adult sensory neurons; format: cell-based; conditions: for total neurite outgrowth: cultured adult sensory neurons from normal adult rodents
From the text: The fundamental hypothesis is that blocking endogenous cholinergic constraint using a muscarinic receptor antagonist will promote re-growth of neurons in patients with established peripheral neuropathy. This occurs via activation of AMPK and PGC-1α and the subsequent augmentation of mitochondrial function. This pathway comprises a proximal step involving M1 receptor antagonist-dependent activation of CaMKKβ (or CaMKK2). This hypothesis is supported by extensive preclinical data using in vitro and in vivo model systems. […] A specific requirement for M1 receptor antagonism is confirmed by the increased neurite outgrowth from sensory neurons derived from M1R KO mice.
The highly specific M1 receptor antagonist, MT7 (muscarinic toxin 7), enhanced neurite outgrowth in cultured adult rat sensory neurons (FIGS. 9(A), 9(B), 10). The data in FIG. 10 are means±SEM of 9 replicate cultures. Significant differences were determined by one-way ANOVA with Dunnett's post-hoc test.

[4] = tested on: adult sensory neurons from normal rats; assay: Neurite outgrowth of sensory neurons exposed to paclitaxel or oxaliplatin; format: cell-based, rat; conditions: 24 hours; paclitaxel 0.1 or 0.3 μM, oxaliplatin 3.0 μM
Description: Adult sensory neurons from normal rats were cultured for 24 hours in the presence of(A) paclitaxel (PX; 0.1 μM or 0.3 μM), or (B) oxaliplatin (OX; 3.0 μM). From time of plating some cultures were treated with 0.1, 1.0 or 10 μM pirenzepine (PZ). Levels of total neurite outgrowth were determined and presented as means±SEM, N=6-8/group. Significant differences were assessed in(A) by t-test, and in(B) by one-way ANOVA with Dunnett's post-hoc test.

db/db mice = assay: Topical oxybutynin in db/db mouse model of type 2 diabetes; format: in vivo
Description: The muscarinic receptor antagonist oxybutynin was tested for efficacy against a functional measure of sensory neuropathy in the db/db mouse model of type 2 diabetes (FIG. 15). Thermal latency was analyzed as taught by Calcutt et al. (2004, Prevention of sensory disorders in diabetic Sprague-Dawley rats by aldose reductase inhibition or treatment with ciliary neurotrophic factor. Diabetologia 47:718-24). […] Some diabetic mice were then treated with oxybutynin (Oxy: 2% in hydrogel) applied to the right paw for 20 min/day 5 days a week, while others were treated with hydrogel vehicle alone. […] Data are group mean±SEM of N=8-9/group.
IENF levels were quantified as taught by Beiswenger et al. (2008, Epidermal nerve fiber quantification in the assessment of diabetic neuropathy. Acta Histochem. 110:351-63). The data shown in FIG. 16(A) are group mean±SEM of N=6-8/group. Significant differences were determined with a oneway ANOVA followed by Dunnett's post-hoc test. […] After 8 weeks of topical oxybutynin treatment, the eyes were assessed using corneal confocal microscopy as taught by Chen et al. (2013, Repeated monitoring of corneal nerves by confocal microscopy as an index of peripheral neuropathy in type-1 diabetic rodents and the effects of topical insulin. J. Periph. Nerv. Syst. 18;306-315).

[5] = tested on: STZ-induced diabetic Swiss Webster mice; assay: Systemic oxybutynin in STZ-induced diabetic Swiss Webster mice, thermal hypoalgesia; format: in vivo, mouse; conditions: 9 weeks after 8 weeks of untreated diabetes
adult Swiss Webster mice = assay: Corneal nerve occupancy by confocal microscopy in normal mice given MT7 eye drops; format: in vivo, mouse; conditions: daily eye drops; day 11 vs day 2, p<0.05
Description: To further extend our investigation of the actions of muscarinic receptor antagonists on nerve growth, we treated normal mice with the M1 receptor-specific antagonist MT7 by daily delivery to the eyes for 11 days and used confocal microscopy to provide a non-invasive and therefore iterative assessment of corneal nerve density.
A group (n=8) of adult Swiss Webster mice received daily treatment with MT7, which was given by eye drops (20 μl volume) in saline. Nerve occupancies in the sub-basal nerve plexus (SBNP 1-5) and upper stromal (Stroma 1-10) regions of the cornea were measured on day 2 and day 11 of treatment (FIG. 23). […] Data are group means (N=8)±SEM.

[6] = tested on: cultured adult rat sensory neurons; format: cell-based; conditions: gp120 24 hours; not shown
Description: To further extend our investigation of the actions of muscarinic receptor antagonists on nerve growth, cultured adult rat sensory neurons were treated for 24 hours with recombinant gp120, an external coat protein of HIV that causes toxicity to sensory neurons in HIV neuropathy (FIG. 24). This toxicity leads to axon degeneration and neuronal cell death. Cultures were treated with 1 μM pirenzpeine and total neurite outgrowth determined. […] Values are means±SEM. n=6.

M1 receptor = target: T1, M1 receptor (Homo sapiens, UniProt P11229); conditions: cited from earlier work
T1 sequence (P11229 1-460): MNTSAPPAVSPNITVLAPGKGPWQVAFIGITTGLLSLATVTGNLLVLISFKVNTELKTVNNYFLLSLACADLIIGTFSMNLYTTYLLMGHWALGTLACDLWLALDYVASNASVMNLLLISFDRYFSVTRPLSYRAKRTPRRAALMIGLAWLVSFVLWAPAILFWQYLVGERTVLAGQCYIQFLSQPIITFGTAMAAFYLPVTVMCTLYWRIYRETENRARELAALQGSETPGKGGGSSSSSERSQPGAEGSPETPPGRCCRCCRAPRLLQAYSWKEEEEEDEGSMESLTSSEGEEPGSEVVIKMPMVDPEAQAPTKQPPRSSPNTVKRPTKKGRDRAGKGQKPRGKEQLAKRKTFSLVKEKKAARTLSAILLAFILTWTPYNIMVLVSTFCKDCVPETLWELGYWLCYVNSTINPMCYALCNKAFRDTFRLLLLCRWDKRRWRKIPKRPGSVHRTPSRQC

[7] = 2% solution topically to one eye
[8] = topical, 8 weeks, values not significantly different from controls

**Q.** For c1cc(-c2cnn3cc(-c4ccc(OCCN5CCCCC5)cc4)cnc23)ccn1 [Compound C], which “effect on MT7 stimulation of PGC-1α transcription” value (PGC-1α; 0.3μM co-treatment with MT7) is on record?
**A.** blocked

**Q.** With CN1[C@@H]2CC[C@H]1C[C@@H](OC(=O)C(CO)c1ccccc1)C2 (stereo partly drawn) [atropine] as the molecule, how does the “large fiber MNCV” value ([1]; 2% gel topically to one paw) read?
**A.** not different to controls

**Q.** And the “paw thermal hypoalgesia (paw thermal latency)” value ([1]; 2% gel topically to one paw)?
**A.** not different to controls

**Q.** And the “large fiber MNCV” value [1, 7]?
**A.** not different to controls

**Q.** And the “paw thermal hypoalgesia (paw thermal latency)” value [1, 7]?
**A.** not different to controls

**Q.** What does the source list for O=C(O)c1ccc2c3c1cccc3c(=O)n1c3ccccc3nc21 [STO-609]?
**A.** effect on MT7-induced enhancement of AMPK phosphorylation ([2]; 1.0μM): inhibited; effect on pirenzepine-induced enhancement of AMPK phosphorylation ([2]; 1.0μM): inhibited; effect on pirenzepine-induced neurite outgrowth ([3]; cultured adult rat sensory neurons): dose-dependently inhibited

**Q.** For O=C1[O][Pt]2([NH][C@@H]3CCCC[C@H]3[NH]2)[O]C1=O [oxaliplatin], which “neurite outgrowth of sensory neurons exposed in vitro to the chemotherapeutic” value [4] is on record?
**A.** reduced neurite outgrowth

**Q.** Which results are given for CCN(CC)CC#CCOC(=O)C(O)(c1ccccc1)C1CCCCC1 (stereo not drawn) [oxybutynin, 4-dicthylaminobut-2-ynyl-2-cyclohexyl-2-hydroxy-2-phenyl-ethanoate]?
**A.** total neurite outgrowth [3]: elevated; paw thermal hypoalgesia (thermal latency) (db/db mice; 2% in hydrogel to right paw 20 min/day, 5 days a week, 8 weeks, p<0.01 vs vehicle): reversed; time of treatment to reversal of thermal hypoalgesia (db/db mice; topical oxybutynin): 4-8 weeks; reduction in density of IENF in paw skin (db/db mice; [8]): attenuated; reduction in nerve fiber occupancy in the cornea (db/db mice; [8]): attenuated; thermal hypoalgesia ([5]; 3 mg/kg s.c.): able to reverse; thermal hypoalgesia ([5]; 10 mg/kg s.c.): able to reverse

B1: MT7: 64-66 amino acid protein derived from the African green mamba snake; most specific antagonist of the M1 receptor (protein, UniProt Q8QGR0 22-86, looked up)
Muscarinic toxin 7: LTCVKSNSIWFPTSEDCPDGQNLCFKRWQYISPRMYDFTRGCAATCPKAEYRDVINCCGTDKCNK
**Q.** For B1, which AMPK phosphorylation ([2]; MT7) is on record?
**A.** enhancement

**Q.** And the “transcription of PGC-1α” value (PGC-1α; MT7 treatment, neurons from STZ-induced diabetic rats)?
**A.** activated

**Q.** And the total neurite outgrowth [3]?
**A.** enhanced; also recorded: dose-dependently elevated

**Q.** And the “nerve occupancy in the sub-basal nerve plexus (SBNP 1-5) of the cornea” value (adult Swiss Webster mice)?
**A.** increased significantly

**Q.** What about the “nerve occupancy in the upper stromal (Stroma 1-10) region of the cornea” value (adult Swiss Webster mice) of the same molecule?
**A.** increased significantly

**Q.** And the “level of protection from gp120 treatment” value [6]?
**A.** approximately 50%

**Q.** And the “concentrations at which it binds to an allosteric site on the M1 receptor” value (M1 receptor; allosteric site)?
**A.** low nanomolar

**Q.** What about the “selectivity for M1 receptors over M2-M5” value (M1 receptor) of the same molecule?
**A.** 10,000 fold
